According to patent US20170368082A1, “FORMULATIONS OF BRINCIDOFOVIR” (priority 2016, published 2017):
Where two headings read alike, the source gives them in different places.

Test: Phase 2 toxicokinetics of brincidofovir and cidofovir in plasma
Type: in vivo, Sprague-Dawley CD rats
Conditions: for Cmax/Dose / Tlast / AUClast/Dose / AUC(0-t) / Cmax / Tmax: brincidofovir in plasma; for concentration at 1 h / concentration at 2 h / concentration at 8 h / concentration at 24 h / concentration at 0 h / AUC(0-t) / Cmax / Tmax: female, Sprague-Dawley CD, rat, plasma; for concentration at 1 h / concentration at 2 h / concentration at 8 h / concentration at 24 h / concentration at 0 h: intravenous; for AUC(0-t) / Cmax / Tmax: iv; for Tmax: read-out: Tmax
Description: Plasma samples (108) were collected 2 hours following the initiation of dosing on Day 1 and Day 7 (Group 1), or at 1, 2, 8, and 24 hours following the initiation of dosing on Day 1, and prior to administration and at 2, 8, and 24 hours following the initiation of dosing on Day 7 (Groups 2 and 3), and analyzed to determine the concentrations of brincidofovir and the metabolite, cidofovir), by LC/MS/MS.
Approximately 0.4 mL of whole blood was obtained via the tail vein from each animal at each time point. Animals were not fasted prior to blood collection. Blood was collected into tubes containing K2EDTA anticoagulant and placed on wet ice in an upright position, per facility SOP prior to processing. Plasma was separated by centrifugation (10 minutes at approximately 2000 g, at approximately 2-8° C.). Approximately 0.10 mL of plasma was transferred into a single cryotube appropriately labeled with study number, animal number, time point, date of sampling and sample type. Remaining plasma was transferred into a second cryotube and retained as a backup sample. Plasma frozen at approximately −80±10° C. within approximately 2 hours after collection of each blood sample until analysis. Animals were euthanized (CO2 inhalation) after the final blood collection.
In general, TK parameters were estimated using mean plasma concentrations of brincidofovir and cidofovir derived from the composite blood sampling design using Phoenix WinNonLin (V 6.3).
A composite blood sampling design was used such that each rat was sampled twice per sampling day. Blood was collected via tail vein from unanesthetized animals into tubes containing anticoagulant and placed on wet ice in an upright position. Animals were not fasted prior to blood collection. Plasma was separated by centrifugation (for 10 minutes at approximately 2000 g, at approximately 2-8° C.), and transferred into individually labeled cryotubes. All cryotubes containing the collected plasma samples were appropriately labeled as to study number, animal number, time point, date of sampling and sample type. All plasma samples were obtained and frozen at approximately −80° C. (±10° C.) within approximately 2 hours after collection of each blood sample until analysis.
Rat plasma bioanalysis was conducted by Pyxant Laboratories. Plasma samples were analyzed for concentrations of brincidofovir and cidofovir using a method based upon protein precipitation extraction followed by LC-MS/MS analysis; calibration ranges for brincidofovir and cidofovir were 1.00-1500 ng/mL and 5.00-750 ng/mL, respectively, (Pyxant study number 3025) for a 50 μL aliquot of rat plasma. Sample analysis for ISR was not performed as part of this non-GLP study.
For the generation of Mean Profiles, all sample concentrations that were below the limit of quantitation (BLQ) were set to 0.
All pharmacokinetic parameter estimates were completed using a Non-Compartmental Model (Model 200-202 for IV infusion administration). The AUClast and AUCinf were calculated using the linear up log down trapezoidal rule.

[1] = 1 mg/kg 2-hour IV infusion, Male rats, Day 1
[2] = 1 mg/kg 2-hour IV infusion, Male rats, Day 7
[3] = 15 mg/kg 2-hour IV infusion, Female rats, Day 1
[4] = 15 mg/kg 2-hour IV infusion, Female rats, Day 7
[5] = 15 mg/kg 2-hour IV infusion, Male rats, Day 1
[6] = 15 mg/kg 2-hour IV infusion, Male rats, Day 7
[7] = 1 mg/kg, 1 mg/kg 2-hour IV infusion, Female rats, Day 1
[8] = 1 mg/kg, 1 mg/kg 2-hour IV infusion, Female rats, Day 7

CCCCCCCCCCCCCCCCOCCCOP(=O)(O)CO[C@H](CO)Cn1ccc(N)nc1=O [Brincidofovir]
Cmax/Dose [1]: 235 (ng/mL)/(mg/kg) | Tlast [1]: 2 h | Cmax/Dose [2]: 208 (ng/mL)/(mg/kg) | Tlast [2]: 2 h | AUClast/Dose [3]: 491 (h*ng/mL)/(mg/kg) | Cmax/Dose [3]: 231 (ng/mL)/(mg/kg) | Tlast [3]: 24 h | AUClast/Dose [4]: 228 (h*ng/mL)/(mg/kg) | Cmax/Dose [4]: 110 (ng/mL)/(mg/kg) | Tlast [4]: 24 h | AUClast/Dose [5]: 585 (h*ng/mL)/(mg/kg) | Cmax/Dose [5]: 291 (ng/mL)/(mg/kg) | Tlast [5]: 24 h | AUClast/Dose [6]: 273 (h*ng/mL)/(mg/kg) | Cmax/Dose [6]: 127 (ng/mL)/(mg/kg) | Tlast [6]: 24 h | concentration at 1 h (1 mg/kg, brincidofovir 1 mg/kg, Female, Day 1, 1 h, read-out: brincidofovir Imputed Mean Concentration (IMC)): 137 ng/mL | concentration at 1 h (1 mg/kg, brincidofovir 1 mg/kg, Female, Day 1, 1 h, read-out: brincidofovir Mean Concentration (MC)): 137 ng/mL | concentration at 2 h (1 mg/kg, brincidofovir 1 mg/kg, Female, Day 1, 2 h, read-out: brincidofovir Imputed Mean Concentration (IMC)): 191 ng/mL | concentration at 2 h (1 mg/kg, brincidofovir 1 mg/kg, Female, Day 1, 2 h, read-out: brincidofovir Mean Concentration (MC)): 191 ng/mL | concentration at 8 h (1 mg/kg, brincidofovir 1 mg/kg, Female, Day 1, 8 h, read-out: brincidofovir Imputed Mean Concentration (IMC)): 1.25 ng/mL | concentration at 8 h (1 mg/kg, brincidofovir 1 mg/kg, Female, Day 1, 8 h, read-out: brincidofovir Mean Concentration (MC)): 1.25 ng/mL | concentration at 24 h (1 mg/kg, brincidofovir 1 mg/kg, Female, Day 1, 24 h, read-out: brincidofovir Mean Concentration (MC)): 0 ng/mL | concentration at 0 h (1 mg/kg, brincidofovir 1 mg/kg, Female, Day 7, 0 h, read-out: brincidofovir Imputed Mean Concentration (IMC)): 0 ng/mL | concentration at 0 h (1 mg/kg, brincidofovir 1 mg/kg, Female, Day 7, 0 h, read-out: brincidofovir Mean Concentration (MC)): 0 ng/mL | concentration at 2 h (1 mg/kg, brincidofovir 1 mg/kg, Female, Day 7, 2 h, read-out: brincidofovir Imputed Mean Concentration (IMC)): 95.4 ng/mL | concentration at 2 h (1 mg/kg, brincidofovir 1 mg/kg, Female, Day 7, 2 h, read-out: brincidofovir Mean Concentration (MC)): 95.4 ng/mL | concentration at 8 h (1 mg/kg, brincidofovir 1 mg/kg, Female, Day 7, 8 h, read-out: brincidofovir Imputed Mean Concentration (IMC)): 2.19 ng/mL | concentration at 8 h (1 mg/kg, brincidofovir 1 mg/kg, Female, Day 7, 8 h, read-out: brincidofovir Mean Concentration (MC)): 2.19 ng/mL | concentration at 1 h (1 mg/kg, brincidofovir 1 mg/kg 2-h IV infusion, female rats, Day 1, 1 h, BLQ imputed as zero, read-out: Imputed Concentration, Mean): 137 ng/mL | concentration at 1 h (1 mg/kg, brincidofovir 1 mg/kg 2-h IV infusion, female rats, Day 1, 1 h, BLQ imputed as zero, read-out: Imputed Concentration, individual animals): 109 ng/mL | concentration at 2 h (1 mg/kg, brincidofovir 1 mg/kg 2-h IV infusion, female rats, Day 1, 2 h, BLQ imputed as zero, read-out: Imputed Concentration, Mean): 191 ng/mL | concentration at 2 h (1 mg/kg, brincidofovir 1 mg/kg 2-h IV infusion, female rats, Day 1, 2 h, BLQ imputed as zero, read-out: Imputed Concentration, individual animals): 253 ng/mL | concentration at 8 h (1 mg/kg, brincidofovir 1 mg/kg 2-h IV infusion, female rats, Day 1, 8 h, BLQ imputed as zero, read-out: Imputed Concentration, Mean): 1.25 ng/mL | concentration at 24 h (1 mg/kg, brincidofovir 1 mg/kg 2-h IV infusion, female rats, Day 1, 24 h, BLQ imputed as zero, read-out: Imputed Concentration, Mean): 0 ng/mL | concentration at 24 h (1 mg/kg, brincidofovir 1 mg/kg 2-h IV infusion, female rats, Day 1, 24 h, BLQ imputed as zero, read-out: Imputed Concentration, individual animals): 0 ng/mL | concentration at 0 h (1 mg/kg, brincidofovir 1 mg/kg 2-h IV infusion, female rats, Day 7, 0 h, BLQ imputed as zero, read-out: Imputed Concentration, individual animals): 0 ng/mL | concentration at 2 h (15 mg/kg, 15 mg/kg, female rats, Day 1, 2 h, read-out: IC (Imputed Concentration), individual animals): 2460 ng/mL | concentration at 8 h (15 mg/kg, 15 mg/kg, female rats, Day 1, 8 h, read-out: C (Concentration), individual animals): 5.05 ng/mL | concentration at 8 h (15 mg/kg, 15 mg/kg, female rats, Day 1, 8 h, read-out: IC (Imputed Concentration), individual animals): 5.05 ng/mL | concentration at 24 h (15 mg/kg, 15 mg/kg, female rats, Day 1, 24 h, read-out: C (Concentration), individual animals): 2.32 ng/mL | concentration at 24 h (15 mg/kg, 15 mg/kg, female rats, Day 1, 24 h, read-out: IC (Imputed Concentration), individual animals): 2.32 ng/mL | concentration at 8 h (15 mg/kg, 15 mg/kg, female rats, Day 7, 8 h, read-out: C (Concentration), individual animals): 5.32 ng/mL | concentration at 8 h (15 mg/kg, 15 mg/kg, female rats, Day 7, 8 h, read-out: IC (Imputed Concentration), individual animals): 5.32 ng/mL | concentration at 24 h (15 mg/kg, 15 mg/kg, female rats, Day 7, 24 h, read-out: C (Concentration), individual animals): 2.37 ng/mL | AUC(0-t) [7]: 459 ng·h/mL | Cmax [7]: 191 ng/mL | Tmax [7]: 2 h | AUC(0-t) [8]: 244 ng·h/mL | Cmax [8]: 95.4 ng/mL | Tmax [8]: 2 h
